Measurements reported in patent US6660774B2, “Use of (+)-tramadol, O-demethyltramadol or (+)-O-demethyl-tramadol, O-desmethyl-N-mono-desmethyl-tramadol or (+)- O-desmethyl-N-mono-desmethyltramadol” (Gruenethal GmbH, priority 1999, dated 2003).

Tests used:
[1] = test system: virgin, female Sprague-Dawley rats (bladder function); assay: Cystometric testing on conscious, virgin rats; type: in vivo, rat
[2] = analgesic effects less pronounced on intravenous than on intracerebroventricular administration; cited from earlier work
[3] = 0.1 mg/kg i.v., Diff.: change relative to the initial value
[4] = 0.1 mg/kg i.v., h: after administration, at maximum action
[5] = 0.1 mg/kg i.v., v: before administration (initial value)
[6] = 0.3 mg/kg i.v., Diff.: change relative to the initial value
[7] = 0.3 mg/kg i.v., h: after administration, at maximum action
[8] = 0.3 mg/kg i.v., v: before administration (initial value)
[9] = 0.5 mg/kg i.v., Diff.: change relative to the initial value
[10] = 0.5 mg/kg i.v., h: after administration, at maximum action
[11] = 0.5 mg/kg i.v., v: before administration (initial value)
[12] = 5.0 mg/kg i.v., Diff.: change relative to the initial value
[13] = 5.0 mg/kg i.v., h: after administration, at maximum action
[14] = 5.0 mg/kg i.v., v: before administration (initial value)

For COc1cccc([C@@]2(O)CCCC[C@@H]2CN(C)C)c1 [(+)-Tramadol, (+)-tramadol], which Basal pressure [1, 3] is on record?
Its Basal pressure is “Diff.: −4%”.

What about the Bladder capacity [1, 3] of the same molecule?
The Bladder capacity was “Diff.: +18%”.

What about the Inter-contraction interval [1, 3] of the same molecule?
Its Inter-contraction interval is “Diff.: +33%”.

What about the Micturition pressure [1, 3] of the same molecule?
The Micturition pressure was “Diff.: −20%”.

And the Micturition volume [1, 3]?
Its Micturition volume is “Diff.: +7%”.

And the Residual volume [1, 3]?
Its Residual volume is “Diff.: 44%”.

What about the Threshold pressure [1, 3] of the same molecule?
The Threshold pressure was “Diff.: +48%”.

And the Basal pressure [1, 4]?
The Basal pressure was “h: 3.85 ± 0.46 cm H2O”.

What about the Bladder capacity [1, 4] of the same molecule?
The Bladder capacity was “h: 1.07 ± 0.13 ml”.

What about the Inter-contraction interval [1, 4] of the same molecule?
The Inter-contraction interval was “h: 7.13 ± 0.85 min”.

What about the Micturition pressure [1, 4] of the same molecule?
The Micturition pressure was “h: 55 ± 8 cm H2O”.

And the Micturition volume [1, 4]?
Its Micturition volume is “h: 0.80 ± 0.09 ml”.

And the Residual volume [1, 4]?
The Residual volume was “h: 0.23 ± 0.07 ml”.

What about the Threshold pressure [1, 4] of the same molecule?
Its Threshold pressure is “h: 11.63 ± 1.05 cm H2O”.

What about the Basal pressure [1, 5] of the same molecule?
The Basal pressure was “v: 4.01 ± 0.57 cm H2O”.

And the Bladder capacity [1, 5]?
The Bladder capacity was “v: 0.91 ± 0.11 ml”.

And the Inter-contraction interval [1, 5]?
The Inter-contraction interval was “v: 5.35 ± 0.63 min”.

What about the Micturition pressure [1, 5] of the same molecule?
Its Micturition pressure is “v: 69 ± 11 cm H2O”.

And the Micturition volume [1, 5]?
The Micturition volume was “v: 0.75 ± 0.12 ml”.

What about the Residual volume [1, 5] of the same molecule?
Its Residual volume is “v: 0.16 ± 0.01 ml”.

What about the Threshold pressure [1, 5] of the same molecule?
Its Threshold pressure is “v: 7.87 ± 1.51 cm H2O”.

And the Basal pressure [1, 6]?
The Basal pressure was “Diff.: +10%”.

What about the Bladder capacity [1, 6] of the same molecule?
The Bladder capacity was “Diff.: +39%”.

What about the Inter-contraction interval [1, 6] of the same molecule?
The Inter-contraction interval was “Diff.: +19%”.

What about the Micturition pressure [1, 6] of the same molecule?
The Micturition pressure was “Diff.: −15%”.

What about the Micturition volume [1, 6] of the same molecule?
Its Micturition volume is “Diff.: +13%”.

And the Residual volume [1, 6]?
Its Residual volume is “Diff.: +167%”.

What about the Threshold pressure [1, 6] of the same molecule?
The Threshold pressure was “Diff.: +95%”.

What about the Basal pressure [1, 7] of the same molecule?
Its Basal pressure is “h: 4.95 ± 0.19 cm H2O”.

What about the Bladder capacity [1, 7] of the same molecule?
The Bladder capacity was “h: 1.38 ± 0.14 ml”.

And the Inter-contraction interval [1, 7]?
The Inter-contraction interval was “h: 7.21 ± 0.72 min”.

And the Micturition pressure [1, 7]?
The Micturition pressure was “h: 60 ± 5 cm H2O”.

What about the Micturition volume [1, 7] of the same molecule?
The Micturition volume was “h: 0.97 ± 0.13 ml”.

And the Residual volume [1, 7]?
The Residual volume was “h: 0.40 ± 0.04 ml”.

What about the Threshold pressure [1, 7] of the same molecule?
Its Threshold pressure is “h: 16.01 ± 1.63 cm H2O”.

And the Basal pressure [1, 8]?
Its Basal pressure is “v: 4.50 ± 0.29 cm H2O”.

And the Bladder capacity [1, 8]?
The Bladder capacity was “v: 0.99 ± 0.08 ml”.

And the Inter-contraction interval [1, 8]?
The Inter-contraction interval was “v: 6.06 ± 0.49 min”.

And the Micturition pressure [1, 8]?
The Micturition pressure was “v: 71 ± 4 cm H2O”.

And the Micturition volume [1, 8]?
Its Micturition volume is “v: 0.86 ± 0.07 ml”.

And the Residual volume [1, 8]?
Its Residual volume is “v: 0.15 ± 0.01 ml”.

What about the Threshold pressure [1, 8] of the same molecule?
The Threshold pressure was “v: 8.21 ± 0.42 cm H2O”.

What about the Basal pressure [1, 9] of the same molecule?
Its Basal pressure is “Diff.: +13%”.

What about the Bladder capacity [1, 9] of the same molecule?
The Bladder capacity was “Diff.: +18%”.

What about the Inter-contraction interval [1, 9] of the same molecule?
The Inter-contraction interval was “Diff.: +21%”.

And the Micturition pressure [1, 9]?
The Micturition pressure was “Diff.: −22%”.

And the Micturition volume [1, 9]?
The Micturition volume was “Diff.: +22%”.

What about the Residual volume [1, 9] of the same molecule?
The Residual volume was “Diff.: −14%”.

What about the Threshold pressure [1, 9] of the same molecule?
The Threshold pressure was “Diff.: +91%”.

And the Basal pressure [1, 10]?
The Basal pressure was “h: 4.70 ± 1.14 cm H2O”.

What about the Bladder capacity [1, 10] of the same molecule?
Its Bladder capacity is “h: 1.43 ± 0.11 ml”.

What about the Micturition pressure [1, 10] of the same molecule?
Its Micturition pressure is “h: 57 ± 10 cm H2O”.

And the Micturition volume [1, 10]?
Its Micturition volume is “h: 1.31 ± 0.12 ml”.

What about the Residual volume [1, 10] of the same molecule?
The Residual volume was “h: 0.12 ± 0.002 ml”.

What about the Threshold pressure [1, 10] of the same molecule?
Its Threshold pressure is “h: 15.0 ± 2.58 cm H2O”.

And the Basal pressure [1, 11]?
The Basal pressure was “v: 4.16 ± 0.62 cm H2O”.

What about the Bladder capacity [1, 11] of the same molecule?
The Bladder capacity was “v: 1.21 ± 0.06 ml”.

What about the Micturition pressure [1, 11] of the same molecule?
The Micturition pressure was “v: 73 ± 12 cm H2O”.

What about the Micturition volume [1, 11] of the same molecule?
The Micturition volume was “v: 1.07 ± 0.06 ml”.

And the Residual volume [1, 11]?
Its Residual volume is “v: 0.14 ± 0.03 ml”.

And the Threshold pressure [1, 11]?
The Threshold pressure was “v: 7.85 ± 1.04 cm H2O”.

And the “effect on bladder parameters (in words)” value ([1]; 5 mg/kg i.v.)?
Its value is “has an effect”.

What about the Basal pressure [1, 12] of the same molecule?
The Basal pressure was “Diff.: +53%”.

And the Bladder capacity [1, 12]?
The Bladder capacity was “Diff.: −2%”.

What about the Inter-contraction interval [1, 12] of the same molecule?
The Inter-contraction interval was “Diff.: +7%”.

What about the Micturition pressure [1, 12] of the same molecule?
The Micturition pressure was “Diff.: −15%”.

And the Micturition volume [1, 12]?
The Micturition volume was “Diff.: +46%”.

And the Residual volume [1, 12]?
Its Residual volume is “Diff.: −95%”.

And the Threshold pressure [1, 12]?
The Threshold pressure was “Diff.: +140%”.

What about the Basal pressure [1, 13] of the same molecule?
The Basal pressure was “h: 6.46 ± 1.13 cm H2O”.

What about the Bladder capacity [1, 13] of the same molecule?
The Bladder capacity was “h: 0.90 ± 0.09 ml”.

And the Micturition pressure [1, 13]?
The Micturition pressure was “h: 51 ± 7 cm H2O”.

And the Micturition volume [1, 13]?
Its Micturition volume is “h: 1.18 ± 0.12 ml”.

And the Residual volume [1, 13]?
Its Residual volume is “h: 0.006 ± 0.003 ml”.

And the Threshold pressure [1, 13]?
The Threshold pressure was “h: 19.20 ± 3.02 cm H2O”.

What about the Basal pressure [1, 14] of the same molecule?
The Basal pressure was “v: 4.23 ± 0.35 cm H2O”.

And the Bladder capacity [1, 14]?
Its Bladder capacity is “v: 0.92 ± 0.08 ml”.

And the Micturition pressure [1, 14]?
Its Micturition pressure is “v: 60 ± 4 cm H2O”.

And the Micturition volume [1, 14]?
The Micturition volume was “v: 0.81 ± 0.07 ml”.

And the Residual volume [1, 14]?
Its Residual volume is “v: 0.11 ± 0.02 ml”.

What about the Threshold pressure [1, 14] of the same molecule?
Its Threshold pressure is “v: 8.0 ± 1.10 cm H2O”.

And the “bladder capacity (in words)” value ([1]; rat, in vivo)?
The value was “distinct increase”.

With CNCC1CCCCC1(O)c1cccc(O)c1 (stereo not drawn) [M5, O-desmethyl-N-mono-desmethyltramadol] as the molecule, how does the “penetration of the blood-brain barrier (in words)” value [2] read?
Its value is “only a limited extent”.

For CN(C)CC1CCCCC1(O)c1cccc(O)c1 (stereo not drawn) [O-demethyltramadol], which “effect on bladder function (in words)” value ([1]; even at low concentrations) is on record?
The value was “clear effect”.

What does the source list for (+)-O-desmethyltramadol [(+)-M1]?
Basal pressure [1, 3]: Diff.: +7%; Bladder capacity [1, 3]: Diff.: +31%; Inter-contraction interval [1, 3]: Diff.: +31%; Micturition pressure [1, 3]: Diff.: −22%; Micturition volume [1, 3]: Diff.: +48%; Residual volume [1, 3]: Diff.: −73%; Threshold pressure [1, 3]: Diff.: +32%; Basal pressure [1, 4]: h: 3.87 ± 0.43 cm H2O; Bladder capacity [1, 4]: h: 0.98 ± 0.06 ml; Inter-contraction interval [1, 4]: 5.51 ± 0.52 min; Micturition pressure [1, 4]: h: 70 ± 11 cm H2O; Micturition volume [1, 4]: h: 0.95 ± 0.09 ml; Residual volume [1, 4]: h: 0.03 ± 0.02 ml; Threshold pressure [1, 4]: h: 8.07 ± 0.97 cm H2O; Basal pressure [1, 5]: v: 3.62 ± 0.24 cm H2O; Bladder capacity [1, 5]: v: 0.75 ± 0.08 ml; Inter-contraction interval [1, 5]: 4.20 ± 0.55 min; Micturition pressure [1, 5]: v: 90 ± 12 cm H2O; Micturition volume [1, 5]: v: 0.64 ± 0.10 ml; Residual volume [1, 5]: v: 0.11 ± 0.02 ml; Threshold pressure [1, 5]: v: 6.12 ± 0.51 cm H2O; Basal pressure [1, 9]: Diff.: +25%; Bladder capacity [1, 9]: Diff.: +44%; Inter-contraction interval [1, 9]: Diff.: +46%; Micturition pressure [1, 9]: Diff.: −30%; Micturition volume [1, 9]: Diff.: +51%; Residual volume [1, 9]: Diff.: −33%; Threshold pressure [1, 9]: Diff.: +106%; Basal pressure [1, 10]: h: 4.90 ± 0.55 cm H2O; Bladder capacity [1, 10]: h: 1.35 ± 0.11 ml; Inter-contraction interval [1, 10]: 7.63 ± 0.60 min; Micturition pressure [1, 10]: h: 66 ± 10 cm H2O; Micturition volume [1, 10]: h: 1.28 ± 0.09 ml; Residual volume [1, 10]: h: 0.06 ± 0.02 ml; Threshold pressure [1, 10]: h: 15.34 ± 1.16 cm H2O; Basal pressure [1, 11]: v: 3.91 ± 0.31 cm H2O; Bladder capacity [1, 11]: v: 0.94 ± 0.08 ml; Inter-contraction interval [1, 11]: 5.23 ± 0.45 min; Micturition pressure [1, 11]: v: 94 ± 10 cm H2O; Micturition volume [1, 11]: v: 0.85 ± 0.08 ml; Residual volume [1, 11]: v: 0.09 ± 0.02 ml; Threshold pressure [1, 11]: v: 7.44 ± 1.10 cm H2O; bladder capacity (in words) ([1]; 0.1 and 0.5 mg/kg i.v.): increased; interval between micturition (in words) ([1]; 0.1 and 0.5 mg/kg i.v.): extended; threshold pressure (in words) ([1]; 0.1 and, in particular, 0.5 mg/kg i.v.): distinct rise
